Measured values published in ChEMBL document CHEMBL1909046, “DrugMatrix in vitro pharmacology data”.

How the values were obtained:
Cytochrome P450 3A4 = Cytochrome P450 3A4 (Homo sapiens, UniProt P08684); details: bti-tn-5b1-4; note: in other assays of this panel Not Active means under 50% inhibition at 10 µM
[1] = target: T1, Nitric oxide synthase, inducible (Mus musculus, UniProt P29477); set-up: species or system Escherichia coli;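 note: inhibition of iNOS enzyme activity measured with L-arginine as substrate; in other assays of this panel Not Active means under 50% inhibition at 10 µM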
T1 sequence (P29477 whole entry): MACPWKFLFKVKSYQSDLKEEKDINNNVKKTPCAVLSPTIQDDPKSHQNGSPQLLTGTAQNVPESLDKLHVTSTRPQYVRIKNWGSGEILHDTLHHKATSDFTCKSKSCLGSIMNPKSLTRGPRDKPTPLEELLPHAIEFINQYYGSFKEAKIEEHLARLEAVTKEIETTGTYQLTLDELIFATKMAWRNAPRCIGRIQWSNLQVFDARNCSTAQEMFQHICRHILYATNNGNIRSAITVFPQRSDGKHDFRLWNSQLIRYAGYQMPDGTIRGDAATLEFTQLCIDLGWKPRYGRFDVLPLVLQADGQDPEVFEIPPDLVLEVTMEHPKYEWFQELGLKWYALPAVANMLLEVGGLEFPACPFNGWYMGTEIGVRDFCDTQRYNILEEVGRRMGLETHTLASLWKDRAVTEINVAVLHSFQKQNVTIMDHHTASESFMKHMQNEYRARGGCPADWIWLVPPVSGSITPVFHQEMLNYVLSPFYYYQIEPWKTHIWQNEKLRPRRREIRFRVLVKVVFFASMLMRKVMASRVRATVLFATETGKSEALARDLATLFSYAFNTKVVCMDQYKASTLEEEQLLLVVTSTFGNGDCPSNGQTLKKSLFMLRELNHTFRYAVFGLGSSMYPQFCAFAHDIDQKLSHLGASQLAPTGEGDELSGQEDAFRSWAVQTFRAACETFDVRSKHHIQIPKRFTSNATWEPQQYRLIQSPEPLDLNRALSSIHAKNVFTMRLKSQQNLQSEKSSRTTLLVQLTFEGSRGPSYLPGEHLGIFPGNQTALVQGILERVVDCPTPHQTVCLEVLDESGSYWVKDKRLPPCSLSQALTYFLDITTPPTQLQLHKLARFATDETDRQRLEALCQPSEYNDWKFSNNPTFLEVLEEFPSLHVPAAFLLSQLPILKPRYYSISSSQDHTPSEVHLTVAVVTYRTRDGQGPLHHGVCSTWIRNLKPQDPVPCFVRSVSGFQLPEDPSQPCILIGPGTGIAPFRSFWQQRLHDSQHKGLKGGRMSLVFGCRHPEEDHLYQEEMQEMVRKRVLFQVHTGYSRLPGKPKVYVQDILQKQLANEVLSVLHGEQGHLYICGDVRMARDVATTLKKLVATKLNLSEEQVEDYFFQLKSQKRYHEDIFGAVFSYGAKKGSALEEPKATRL

Melanocortin receptor 4 = Melanocortin receptor 4 (Homo sapiens, UniProt P32245); type: cell membranes, HEK293, Membrane; details: hek293; note: in other assays of this panel Not Active means under 50% inhibition at 10 µM
Calcitonin receptor = target: T2, Calcitonin receptor (Homo sapiens, UniProt P30988); type: cell membranes, Membrane; details: t47d; note: in other assays of this panel Not Active means under 50% inhibition at 10 µM
T2 sequence (P30988 whole entry): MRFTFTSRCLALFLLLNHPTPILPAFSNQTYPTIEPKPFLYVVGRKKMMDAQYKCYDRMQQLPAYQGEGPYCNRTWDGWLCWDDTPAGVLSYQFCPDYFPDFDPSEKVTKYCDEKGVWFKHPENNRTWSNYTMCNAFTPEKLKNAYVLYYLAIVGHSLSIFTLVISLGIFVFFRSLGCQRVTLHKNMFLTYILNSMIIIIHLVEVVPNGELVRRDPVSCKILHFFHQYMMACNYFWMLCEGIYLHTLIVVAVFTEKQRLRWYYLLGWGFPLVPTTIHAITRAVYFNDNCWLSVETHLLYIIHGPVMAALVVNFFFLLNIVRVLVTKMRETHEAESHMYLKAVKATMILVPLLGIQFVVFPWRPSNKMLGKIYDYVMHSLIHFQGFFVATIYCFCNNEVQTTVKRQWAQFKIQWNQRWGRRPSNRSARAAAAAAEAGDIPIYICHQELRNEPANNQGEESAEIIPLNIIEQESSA

[2] = target: T3, 3-hydroxy-3-methylglutaryl-coenzyme A reductase (Homo sapiens, UniProt P04035); set-up: species or system Escherichia coli
T3 sequence (P04035 whole entry): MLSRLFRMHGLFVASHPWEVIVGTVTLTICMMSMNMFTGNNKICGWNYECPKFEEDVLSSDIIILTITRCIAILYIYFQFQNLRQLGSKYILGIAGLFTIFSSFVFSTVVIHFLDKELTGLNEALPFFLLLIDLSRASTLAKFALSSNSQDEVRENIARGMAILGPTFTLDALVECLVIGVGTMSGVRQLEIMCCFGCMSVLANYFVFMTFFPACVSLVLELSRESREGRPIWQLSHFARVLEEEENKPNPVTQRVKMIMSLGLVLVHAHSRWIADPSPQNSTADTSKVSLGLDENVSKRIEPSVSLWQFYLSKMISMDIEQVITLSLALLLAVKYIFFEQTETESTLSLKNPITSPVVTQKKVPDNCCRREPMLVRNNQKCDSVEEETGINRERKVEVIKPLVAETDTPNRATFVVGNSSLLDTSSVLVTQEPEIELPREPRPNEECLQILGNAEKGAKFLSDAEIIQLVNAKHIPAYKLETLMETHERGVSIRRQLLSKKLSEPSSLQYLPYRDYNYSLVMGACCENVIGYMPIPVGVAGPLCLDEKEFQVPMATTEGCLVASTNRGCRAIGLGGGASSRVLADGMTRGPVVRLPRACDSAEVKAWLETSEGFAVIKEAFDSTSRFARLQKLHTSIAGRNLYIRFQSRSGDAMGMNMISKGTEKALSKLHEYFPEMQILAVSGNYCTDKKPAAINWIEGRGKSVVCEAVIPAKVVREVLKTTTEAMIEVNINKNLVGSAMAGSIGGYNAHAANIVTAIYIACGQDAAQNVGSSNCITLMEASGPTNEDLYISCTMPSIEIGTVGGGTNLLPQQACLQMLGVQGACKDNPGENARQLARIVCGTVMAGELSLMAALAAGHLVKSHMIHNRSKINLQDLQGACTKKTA

[3] = target: Epidermal growth factor receptor (Homo sapiens, UniProt P00533); assay: DRUGMATRIX: Protein Tyrosine Kinase, EGF Receptor enzyme inhibition (substrate: Poly(Glu:Tyr)); type: cell-based, Insect cells; details: insect cells; Not Active = under 50% inhibition at 10 µM
[4] = DRUGMATRIX: Glutamate, Kainate radioligand binding (ligand: [3H] Kainic acid); type: cell membranes, Rattus norvegicus, Wistar, Brain, Membrane; details: Not Active = under 50% inhibition at 10 µM
Cytochrome P450 2C9 = Cytochrome P450 2C9 (Homo sapiens, UniProt P11712); details: bti-tn-5b1-4; note: in other assays of this panel Not Active means under 50% inhibition at 10 µM
Sequence of Cytochrome P450 2C9 (P11712 whole entry): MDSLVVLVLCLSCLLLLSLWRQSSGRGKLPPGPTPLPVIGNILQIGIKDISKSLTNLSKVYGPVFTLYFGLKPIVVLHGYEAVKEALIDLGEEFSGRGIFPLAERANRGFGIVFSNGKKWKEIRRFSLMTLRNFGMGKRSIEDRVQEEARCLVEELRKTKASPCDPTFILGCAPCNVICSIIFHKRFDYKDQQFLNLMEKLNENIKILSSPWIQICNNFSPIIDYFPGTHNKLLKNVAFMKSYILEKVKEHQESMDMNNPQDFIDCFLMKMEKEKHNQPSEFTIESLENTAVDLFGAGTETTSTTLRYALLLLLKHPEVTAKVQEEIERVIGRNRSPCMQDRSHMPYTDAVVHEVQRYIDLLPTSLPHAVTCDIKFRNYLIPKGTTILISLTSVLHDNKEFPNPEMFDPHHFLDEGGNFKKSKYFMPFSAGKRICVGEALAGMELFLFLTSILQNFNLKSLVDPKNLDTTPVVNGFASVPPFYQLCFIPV

Sequence of Melanocortin receptor 4 (P32245 whole entry): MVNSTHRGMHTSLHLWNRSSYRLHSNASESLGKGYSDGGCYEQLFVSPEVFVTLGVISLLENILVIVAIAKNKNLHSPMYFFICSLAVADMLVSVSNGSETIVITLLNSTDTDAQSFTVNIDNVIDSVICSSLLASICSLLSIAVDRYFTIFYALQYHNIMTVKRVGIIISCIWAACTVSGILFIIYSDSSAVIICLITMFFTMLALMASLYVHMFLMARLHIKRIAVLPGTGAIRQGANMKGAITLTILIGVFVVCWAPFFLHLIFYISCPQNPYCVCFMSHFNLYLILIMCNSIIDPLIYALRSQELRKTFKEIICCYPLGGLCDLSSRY
Sequence of Cytochrome P450 3A4 (P08684 whole entry): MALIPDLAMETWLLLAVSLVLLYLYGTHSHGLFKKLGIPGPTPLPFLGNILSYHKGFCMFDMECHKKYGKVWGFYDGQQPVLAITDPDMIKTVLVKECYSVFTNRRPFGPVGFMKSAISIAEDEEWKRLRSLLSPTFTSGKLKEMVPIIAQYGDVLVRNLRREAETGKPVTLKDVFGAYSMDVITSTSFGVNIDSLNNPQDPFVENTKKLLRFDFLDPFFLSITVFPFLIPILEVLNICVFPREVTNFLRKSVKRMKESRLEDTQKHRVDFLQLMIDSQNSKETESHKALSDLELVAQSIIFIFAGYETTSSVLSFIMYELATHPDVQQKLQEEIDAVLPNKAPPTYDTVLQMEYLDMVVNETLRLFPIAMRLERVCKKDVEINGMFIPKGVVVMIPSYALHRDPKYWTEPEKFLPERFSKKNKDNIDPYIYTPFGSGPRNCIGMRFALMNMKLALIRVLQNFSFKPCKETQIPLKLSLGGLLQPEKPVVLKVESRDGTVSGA
Sequence of Epidermal growth factor receptor (P00533 whole entry): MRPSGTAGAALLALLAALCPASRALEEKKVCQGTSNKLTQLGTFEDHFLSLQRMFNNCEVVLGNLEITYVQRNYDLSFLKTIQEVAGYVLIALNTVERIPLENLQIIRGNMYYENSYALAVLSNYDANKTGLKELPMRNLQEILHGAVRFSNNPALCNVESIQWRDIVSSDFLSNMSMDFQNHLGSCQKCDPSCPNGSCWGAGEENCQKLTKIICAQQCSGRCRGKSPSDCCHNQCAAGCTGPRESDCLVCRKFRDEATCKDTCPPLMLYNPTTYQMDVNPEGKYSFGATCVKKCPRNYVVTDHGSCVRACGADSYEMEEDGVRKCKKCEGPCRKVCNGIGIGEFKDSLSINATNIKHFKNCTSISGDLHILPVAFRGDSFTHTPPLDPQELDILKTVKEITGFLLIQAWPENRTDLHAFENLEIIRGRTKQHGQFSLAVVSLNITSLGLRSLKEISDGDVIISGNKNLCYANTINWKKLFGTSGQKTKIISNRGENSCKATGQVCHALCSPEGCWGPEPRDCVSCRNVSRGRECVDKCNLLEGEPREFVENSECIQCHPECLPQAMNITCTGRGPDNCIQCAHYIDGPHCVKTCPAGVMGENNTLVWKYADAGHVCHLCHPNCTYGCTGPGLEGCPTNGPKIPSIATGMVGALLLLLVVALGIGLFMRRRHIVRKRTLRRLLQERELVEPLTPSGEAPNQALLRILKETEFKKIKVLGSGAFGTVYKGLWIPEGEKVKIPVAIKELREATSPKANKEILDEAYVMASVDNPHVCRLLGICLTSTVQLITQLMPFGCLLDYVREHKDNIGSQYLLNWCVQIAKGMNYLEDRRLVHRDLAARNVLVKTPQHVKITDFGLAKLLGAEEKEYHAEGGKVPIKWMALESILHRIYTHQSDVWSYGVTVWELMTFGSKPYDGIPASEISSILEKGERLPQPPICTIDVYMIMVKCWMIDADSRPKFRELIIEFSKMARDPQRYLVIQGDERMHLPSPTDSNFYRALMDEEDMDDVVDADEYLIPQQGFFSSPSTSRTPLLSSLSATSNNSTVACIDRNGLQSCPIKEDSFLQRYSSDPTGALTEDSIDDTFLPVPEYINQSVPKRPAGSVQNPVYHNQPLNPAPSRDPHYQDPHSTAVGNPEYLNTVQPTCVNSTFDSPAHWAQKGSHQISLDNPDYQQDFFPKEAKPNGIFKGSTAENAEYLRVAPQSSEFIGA

Row | SMILES | IC50 (Cytochrome P450 3A4) | Ki (Cytochrome P450 3A4) | IC50 [1] | IC50 (Melanocortin receptor 4) | IC50 (Calcitonin receptor) | IC50 [2] | IC50 [3] | IC50 [4] | Ki [4] | IC50 (Cytochrome P450 2C9) | Ki (Cytochrome P450 2C9) | IC50 ([2]; read-out: IC50)
1 | O=C/C=C/c1ccccc1 | Not Active | Not Active | Not Active | Not Active | Not Active | Not Active | Not Active | Not Active | Not Active | Not Active | Not Active | –
2 | Nc1ccc2c3c(cccc13)C(=O)NC2=O | Not Active | Not Active | Not Active | Not Active | Not Active | Not Active | Not Active | Not Active | Not Active | Not Active | Not Active | –
3 | COc1ccc(C(=O)N2CCCC2=O)cc1 | Not Active | Not Active | Not Active | Not Active | Not Active | Not Active | Not Active | Not Active | Not Active | Not Active | Not Active | –
4 | O=c1cnn([C@@H]2O[C@H](CO)[C@@H](O)[C@H]2O)c(=O)[nH]1 [6-AZAURIDINE] | Not Active | Not Active | Not Active | Not Active | Not Active | Not Active | Not Active | Not Active | Not Active | Not Active | Not Active | –
5 | CC[C@H](C)[C@H]1O[C@]2(C=C[C@@H]1C)C[C@@H]1C[C@@H](C/C=C(\C)[C@@H](O[C@H]3C[C@H](OC)[C@@H](O[C@H]4C[C@H](OC)[C@@H](O)[C@H](C)O4)[C@H](C)O3)[C@@H](C)/C=C/C=C3\CO[C@@H]4[C@H](O)C(C)=C[C@@H](C(=O)O1)[C@]34O)O2.CO[C@H]1C[C@H](O[C@H]2[C@H](C)O[C@@H](O[C@@H]3/C(C)=C/C[C@@H]4C[C@@H](C[C@]5(C=C[C@H](C)[C@@H](C(C)C)O5)O4)OC(=O)[C@@H]4C=C(C)[C@@H](O)[C@H]5OC/C(=C\C=C\[C@@H]3C)[C@]54O)C[C@@H]2OC)O[C@@H](C)[C@@H]1O [ABAMECTIN] | Not Active | Not Active | Not Active | Not Active | Not Active | Not Active | Not Active | Not Active | Not Active | Not Active | Not Active | –
6 | Cc1nnc2n1-c1ccc(Cl)cc1C(c1ccccc1)=NC2 [ALPRAZOLAM] | Not Active | Not Active | Not Active | Not Active | Not Active | Not Active | Not Active | Not Active | Not Active | Not Active | Not Active | –
7 | CCC1(CCC(C)C)C(=O)NC(=O)NC1=O [AMOBARBITAL] | Not Active | Not Active | Not Active | Not Active | Not Active | Not Active | Not Active | Not Active | Not Active | Not Active | Not Active | –
8 | COc1ccc(C2C(=O)c3ccccc3C2=O)cc1 [ANISINDIONE] | Not Active | Not Active | Not Active | Not Active | Not Active | Not Active | Not Active | Not Active | Not Active | Not Active | Not Active | –
9 | CN/C(=N\CCSCc1nc[nH]c1C)NC#N [CIMETIDINE] | – | – | Not Active | Not Active | Not Active | Not Active | Not Active | Not Active | Not Active | Not Active | Not Active | –
10 | COc1cc(N)c(Cl)cc1C(=O)NC1CCN(CCCOc2ccc(F)cc2)CC1OC (stereo unspecified) [CISAPRIDE] | – | – | Not Active | Not Active | Not Active | – | Not Active | Not Active | Not Active | Not Active | Not Active | 3.37 µM
